≈ marks a conversion by molar mass, not a printed value.
How the values were obtained:
[1] = tested on: clinically isolated MRSA strain (n=9), which has low sensitivity to arbekacin; experiment: Antimicrobial activity (MIC), agar plate dilution method, MRSA with low sensitivity to arbekacin; assay type: cell-based, methicillin-resistant Staphylococcus aureus (MRSA); details: Staphylococcus aureus, clinically isolated MRSA strain (n=9) with low sensitivity to arbekacin, read-out: minimal inhibitory concentration (MIC)
Procedure: MIC of the compound represented by formula (I) produced in Example 1 against an MRSA strain, specifically a clinically isolated MRSA strain (n=9), which has low sensitivity to arbekacin and against which the minimal inhibitory concentration (MIC, μg/mL) is 4 to 8, was measured by an agar plate dilution method according to the standard method of Japan Society of Chemotherapy (Chemotherapy, Vol. 29, pp. 76 to 79, 1981).

kidney of normal mice = details: mouse, in vivo; for Amount of NAG in urine: ip, 120 mg/kg/day
Procedure: An evaluation system of influence on the kidney was constructed based on renal disease model preparation method using gentamicin (KIDNEY AND DIALYSIS, Vol. 31, 1991, extra edition, “Renal Disease Model”, p. 423 “Drug-induced Renal Damage and its Examination Method,” Kidney and Dialysis Editorial Committee, published by TOKYOIGAKUSYA). The influence of the compound represented by formula (I) produced in Example 1 on the kidney was evaluated using this evaluation system. A physiological saline administration group and an arbekacin administration group were set as control groups. Each group consisted of four mice (Crj: CD-1 (ICR) female mice of eight weeks old).
In the above evaluation system, the evaluation of nephrotoxicity was carried out using NAG as an index. NAG exists in lysosome in each tissue of humans and animals, is an enzyme, which converts a mucopolysaccharide to a glycoprotein, for example, converts β-N-acetyl-D-glucosaminide to β-N-acetyl-D-glucosamine, and is plentifully present in proximal uriniferous tubule epithelial cells of the kidney in which aminoglycoside antibiotics are particularly accumulated. When the kidney, especially its proximal uriniferous tubule is damaged, NAG is released into urine to increase the amount of NAG in the urine. Accordingly, the increase in the amount of NAG in urine is considered to reflect proximal uriniferous tubule damage and is adopted as one of biochemical markers for estimating the level of renal insufficiency in clinical test items. The amount of NAG is measured by an examination method, for example, an MCP-NAG method (Outline of Latest Internal Medicine, Vol. 4, Clinical Laboratory—Kensa No Susumekata To Deta No Yomikata (How To Forward Examination and How To Read Data)—<Naika Soron 4 (General Remarks Of Internal Medicine 4> p. 274, Imura et al. (ed.), published by Nakayama Syoten Co., Ltd., 1994).
A solution of physiological saline of the compound according to the present invention having a concentration of 12 mg/mL was administered to the mice in each group at a dose of 120 mg/kg/day (in two divided doses; morning and afternoon) for 4 days by repeated intraperitoneal administration. Naturally excreted urine was collected for about 24 hr from the completion of the administration in the morning on day 4, and the amount of NAG in the urine was measured by the MCP-NAG method. The same treatment was carried out for the physiological saline administration group and the arbekacin administration group.
The influence of arbekacin and an arbekacin analogue TS2037 (5,4″-diepiarbekacin) produced according to the description of WO 2005/070945 on the kidney was evaluated in the same manner as in Test Example 3. […]

[2] = tested on: clinically isolated MRSA strain, which has high resistance to arbekacin; experiment: Antimicrobial activity (MIC), agar plate dilution method, MRSA with high resistance to arbekacin; assay type: cell-based, methicillin-resistant Staphylococcus aureus (MRSA); details: Staphylococcus aureus, different from Test Example 1
[3] = tested on: proximal uriniferous tubule epithelial cells of the kidney of pigs; details: pig kidney proximal uriniferous tubule epithelial cells; compared with arbekacin; 44th ICAAC (2004) subject No. F-716; cited from earlier work

SMILES | MIC [1] | Amount of NAG in urine (kidney of normal mice) | MIC [2] | amount of NAG in the urine (kidney of normal mice) | nephrotoxicity using NAG as an index [3]
NCC[C@H](O)C(=O)NC1C(O)[C@H](N)C(O[C@H]2OC(CN)CCC2N)C(O)[C@H]1O[C@H]1OC(CO)[C@@H](O)C(N)C1O (stereo in doubt) [Compound represented by formula (I), 2-Hydroxyarbekacin] | 0.5 to 2 mg/L | 74.7 mIU |  |  | 
NCC[C@H](O)C(=O)N[C@@H]1C[C@H](N)[C@@H](O[C@H]2O[C@H](CN)CC[C@H]2N)[C@H](O)[C@H]1O[C@H]1O[C@H](CO)[C@@H](O)[C@H](N)[C@H]1O [Arbekacin, (S)-1-N-(4-amino-2-hydroxybutyryl)dibekacin] | 4 to 8 mg/L (≈ 7.24 to 14.5 µM) | 135.0 mIU | 128 mg/L (≈ 232 µM) | 168.5 mIU | 
NCC[C@H](O)C(=O)NC1C[C@H](N)C(O[C@H]2OC(CN)CCC2N)C(O)[C@H]1O[C@H]1OC(CO)[C@H](O)C(N)C1O (some centres unmarked) [TS2037, 5,4″-diepiarbekacin] |  |  |  | 358.8 mIU | higher than that of arbekacin

From patent US8541394B2, “Aminoglycoside antibiotics” (Meiji Seika Pharma Co., Ltd., priority 2006, dated 2013)
